Laboratory results: patent US9738634B2, “Heterocyclic amide compound and herbicide” (SYNGENTA PARTICIPATIONS AG, priority 2013, dated 2017)

Legend:
[1] = tested on: barnyard grass; assay: Test Example 1: weedkilling efficacy, preemergent weed treatment in the submerged state; A: barnyard grass; format: in vivo; conditions: treatment dosage 320 g/ha
Outline: (§1)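 Submerged pre-emergence treatment, water-surface application of compound emulsion at g/ha dosages; 4 cm flooded alluvial soil, weeds sown and 2.5-leaf rice transplanted same day. Rated after 3 weeks, greenhouse.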

[2] = tested on: bulrush; assay: Test Example 1: weedkilling efficacy, preemergent weed treatment in the submerged state; B: bulrush; format: in vivo; conditions: treatment dosage 320 g/ha
Outline: as §1

[3] = tested on: oval-leafed pondweed; assay: Test Example 1: weedkilling efficacy, preemergent weed treatment in the submerged state; C: oval-leafed pondweed; format: in vivo; conditions: treatment dosage 320 g/ha
Outline: as §1

[4] = tested on: transplanted rice; assay: Test Example 1: preemergent weed treatment in the submerged state, effect on crop; a: transplanted rice; format: in vivo; conditions: treatment dosage 320 g/ha
Outline: as §1

[5] = tested on: barnyard grass; assay: Test Example 2: weedkilling efficacy, growth period weed treatment in the submerged state; A: barnyard grass; format: in vivo; conditions: treatment dosage 320 g/ha
Outline: (§2)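 Seedlings at 1-2 leaves in 4 cm-deep submerged alluvial soil received emulsion formulations on the water surface, dosed per hectare; effects were judged 3 weeks on.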

[6] = tested on: bulrush; assay: Test Example 2: weedkilling efficacy, growth period weed treatment in the submerged state; B: bulrush; format: in vivo; conditions: treatment dosage 320 g/ha
Outline: as §2

[7] = tested on: oval-leafed pondweed; assay: Test Example 2: weedkilling efficacy, growth period weed treatment in the submerged state; C: oval-leafed pondweed; format: in vivo; conditions: treatment dosage 320 g/ha
Outline: as §2

[8] = tested on: crabgrass; assay: Test Example 3: weedkilling efficacy through soil treatment; D: crabgrass; format: in vivo; conditions: treatment dosage 320 g/ha
Outline: (§3)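 Crop and weed responses were judged three weeks after a uniform surface spray of the water-diluted emulsion at the given g/ha rate. Seeds sat beneath about 1.5 cm of sterilized diluvial soil, and boxes stood in a greenhouse at 25 to 30° C.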

[9] = tested on: green foxtail; assay: Test Example 3: weedkilling efficacy through soil treatment; E: green foxtail; format: in vivo; conditions: treatment dosage 320 g/ha
Outline: as §3

[10] = tested on: barnyard grass; assay: Test Example 3: weedkilling efficacy through soil treatment; F: barnyard grass; format: in vivo; conditions: treatment dosage 320 g/ha
Outline: as §3

[11] = tested on: wild oat; assay: Test Example 3: weedkilling efficacy through soil treatment; G: wild oat; format: in vivo; conditions: treatment dosage 320 g/ha
Outline: as §3

[12] = tested on: black-grass; assay: Test Example 3: weedkilling efficacy through soil treatment; H: black-grass; format: in vivo; conditions: treatment dosage 320 g/ha
Outline: as §3

[13] = tested on: Italian ryegrass; assay: Test Example 3: weedkilling efficacy through soil treatment; I: Italian ryegrass; format: in vivo; conditions: treatment dosage 320 g/ha
Outline: as §3

[14] = tested on: common wind-grass; assay: Test Example 3: weedkilling efficacy through soil treatment; J: common wind-grass; format: in vivo; conditions: treatment dosage 320 g/ha
Outline: as §3

[15] = tested on: Indian mallow; assay: Test Example 3: weedkilling efficacy through soil treatment; K: Indian mallow; format: in vivo; conditions: treatment dosage 320 g/ha
Outline: as §3

[16] = tested on: redroot pigweed; assay: Test Example 3: weedkilling efficacy through soil treatment; L: redroot pigweed; format: in vivo; conditions: treatment dosage 320 g/ha
Outline: as §3

[17] = tested on: fig-leafed goosefoot; assay: Test Example 3: weedkilling efficacy through soil treatment; M: fig-leafed goosefoot; format: in vivo; conditions: treatment dosage 320 g/ha
Outline: as §3

[18] = tested on: chickweed; assay: Test Example 3: weedkilling efficacy through soil treatment; N: chickweed; format: in vivo; conditions: treatment dosage 320 g/ha
Outline: as §3

[19] = tested on: catchweed; assay: Test Example 3: weedkilling efficacy through soil treatment; O: catchweed; format: in vivo; conditions: treatment dosage 320 g/ha
Outline: as §3

[20] = tested on: birds-eye speedwell; assay: Test Example 3: weedkilling efficacy through soil treatment; p: birds-eye speedwell; format: in vivo; conditions: treatment dosage 320 g/ha
Outline: as §3

[21] = tested on: directly sown rice; assay: Test Example 3: soil treatment, effect on crop; b: directly sown rice; format: in vivo; conditions: treatment dosage 320 g/ha
Outline: as §3

[22] = tested on: corn; assay: Test Example 3: soil treatment, effect on crop; c: corn; format: in vivo; conditions: treatment dosage 320 g/ha
Outline: as §3

[23] = tested on: soybean; assay: Test Example 3: soil treatment, effect on crop; d: soybean; format: in vivo; conditions: treatment dosage 320 g/ha
Outline: as §3

[24] = tested on: wheat; assay: Test Example 3: soil treatment, effect on crop; e: wheat; format: in vivo; conditions: treatment dosage 320 g/ha
Outline: as §3

[25] = tested on: beet; assay: Test Example 3: soil treatment, effect on crop; f: beet; format: in vivo; conditions: treatment dosage 320 g/ha
Outline: as §3

[26] = tested on: rapeseed; assay: Test Example 3: soil treatment, effect on crop; g: rapeseed; format: in vivo; conditions: treatment dosage 320 g/ha
Outline: as §3

[27] = tested on: crabgrass; assay: Test Example 4: weedkilling efficacy by foliar treatment; D: crabgrass; format: in vivo; conditions: treatment dosage 320 g/ha
Outline: (§4)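 Seeds are spot-sown into sterilized diluvial soil and covered with about 1.5 cm of soil. After 14 days' greenhouse growth at 25 to 30° C, plants are sprayed on stems and leaves with diluted emulsion at the stated g/ha rate, then scored at 3 weeks.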

[28] = tested on: green foxtail; assay: Test Example 4: weedkilling efficacy by foliar treatment; E: green foxtail; format: in vivo; conditions: treatment dosage 320 g/ha
Outline: as §4

[29] = tested on: barnyard grass; assay: Test Example 4: weedkilling efficacy by foliar treatment; F: barnyard grass; format: in vivo; conditions: treatment dosage 320 g/ha
Outline: as §4

[30] = tested on: wild oat; assay: Test Example 4: weedkilling efficacy by foliar treatment; G: wild oat; format: in vivo; conditions: treatment dosage 320 g/ha
Outline: as §4

[31] = tested on: black-grass; assay: Test Example 4: weedkilling efficacy by foliar treatment; H: black-grass; format: in vivo; conditions: treatment dosage 320 g/ha
Outline: as §4

[32] = tested on: Italian ryegrass; assay: Test Example 4: weedkilling efficacy by foliar treatment; I: Italian ryegrass; format: in vivo; conditions: treatment dosage 320 g/ha
Outline: as §4

[33] = tested on: common wind-grass; assay: Test Example 4: weedkilling efficacy by foliar treatment; J: common wind-grass; format: in vivo; conditions: treatment dosage 320 g/ha
Outline: as §4

[34] = tested on: Indian mallow; assay: Test Example 4: weedkilling efficacy by foliar treatment; K: Indian mallow; format: in vivo; conditions: treatment dosage 320 g/ha
Outline: as §4

[35] = tested on: redroot pigweed; assay: Test Example 4: weedkilling efficacy by foliar treatment; L: redroot pigweed; format: in vivo; conditions: treatment dosage 320 g/ha
Outline: as §4

[36] = tested on: fig-leafed goosefoot; assay: Test Example 4: weedkilling efficacy by foliar treatment; M: fig-leafed goosefoot; format: in vivo; conditions: treatment dosage 320 g/ha
Outline: as §4

[37] = tested on: chickweed; assay: Test Example 4: weedkilling efficacy by foliar treatment; N: chickweed; format: in vivo; conditions: treatment dosage 320 g/ha
Outline: as §4

[38] = tested on: catchweed; assay: Test Example 4: weedkilling efficacy by foliar treatment; O: catchweed; format: in vivo; conditions: treatment dosage 320 g/ha
Outline: as §4

[39] = tested on: birds-eye speedwell; assay: Test Example 4: weedkilling efficacy by foliar treatment; p: birds-eye speedwell; format: in vivo; conditions: treatment dosage 320 g/ha
Outline: as §4

[40] = tested on: directly sown rice; assay: Test Example 4: foliar treatment, effect on crop; b: directly sown rice; format: in vivo; conditions: treatment dosage 320 g/ha
Outline: as §4

[41] = tested on: corn; assay: Test Example 4: foliar treatment, effect on crop; c: corn; format: in vivo; conditions: treatment dosage 320 g/ha
Outline: as §4

[42] = tested on: soybean; assay: Test Example 4: foliar treatment, effect on crop; d: soybean; format: in vivo; conditions: treatment dosage 320 g/ha
Outline: as §4

[43] = tested on: wheat; assay: Test Example 4: foliar treatment, effect on crop; e: wheat; format: in vivo; conditions: treatment dosage 320 g/ha
Outline: as §4

[44] = tested on: beet; assay: Test Example 4: foliar treatment, effect on crop; f: beet; format: in vivo; conditions: treatment dosage 320 g/ha
Outline: as §4

[45] = tested on: rapeseed; assay: Test Example 4: foliar treatment, effect on crop; g: rapeseed; format: in vivo; conditions: treatment dosage 320 g/ha
Outline: as §4

CCCN(C(=O)C(C)(C)N1COCN(c2ccccc2)C1=O)c1cc(C(F)(F)F)ccn1 [A-5-05, 2-methyl-2-(4-oxo-5-phenyl-1,3,5-oxadiazinan-3-yl)-N-propyl-N-[4-(trifluoromethyl)-pyridin-2-yl]propionamide]
melting point: 163 to 164 °C

CCC1N=CSN1NC(=O)C(C)(C)N1COC(C)=C(c2ccsc2)C1=O (centres unmarked) [B-1-02, N-(3-ethyl-1,2,4-thiadiazol-2-yl)-2-methyl-2-[6-methyl-4-oxo-5-(thiophen-3-yl)-2H-1,3-oxazin-3(4H)-yl]propionamide]
melting point: 171 to 172 °C

CC1=C(c2ccccc2)C(=O)N(C(C)(C)C(=O)Nc2cc(C#N)ccn2)CO1 [B-2-62]
A (barnyard grass) weedkilling efficacy grade [1]: 5 (weed kill ratio 90% or more, (practically complete withering))
B (bulrush) weedkilling efficacy grade [2]: 5 (weed kill ratio 90% or more, (practically complete withering))
C (oval-leafed pondweed) weedkilling efficacy grade [3]: 5 (weed kill ratio 90% or more, (practically complete withering))
a (transplanted rice) effect on crop grade [4]: 1 (weed kill ratio 5% or more, less than 20%)
A (barnyard grass) weedkilling efficacy grade [5]: 4 (weed kill ratio 70% or more, less than 90%)
B (bulrush) weedkilling efficacy grade [6]: 3 (weed kill ratio 40% or more, less than 70%)
C (oval-leafed pondweed) weedkilling efficacy grade [7]: 5 (weed kill ratio 90% or more, (practically complete withering))
D (crabgrass) weedkilling efficacy grade [8]: 4 (weed kill ratio 70% or more, less than 90%)
E (green foxtail) weedkilling efficacy grade [9]: 4 (weed kill ratio 70% or more, less than 90%)
F (barnyard grass) weedkilling efficacy grade [10]: 3 (weed kill ratio 40% or more, less than 70%)
G (wild oat) weedkilling efficacy grade [11]: 3 (weed kill ratio 40% or more, less than 70%)
H (black-grass) weedkilling efficacy grade [12]: 3 (weed kill ratio 40% or more, less than 70%)
I (Italian ryegrass) weedkilling efficacy grade [13]: 4 (weed kill ratio 70% or more, less than 90%)
J (common wind-grass) weedkilling efficacy grade [14]: 5 (weed kill ratio 90% or more, (practically complete withering))
K (Indian mallow) weedkilling efficacy grade [15]: 0 (weed kill ratio 5% or less (practically no effect))
L (redroot pigweed) weedkilling efficacy grade [16]: 2 (weed kill ratio 20% or more, less than 40%)
M (fig-leafed goosefoot) weedkilling efficacy grade [17]: 3 (weed kill ratio 40% or more, less than 70%)
N (chickweed) weedkilling efficacy grade [18]: 3 (weed kill ratio 40% or more, less than 70%)
O (catchweed) weedkilling efficacy grade [19]: 0 (weed kill ratio 5% or less (practically no effect))
P (birds-eye speedwell) weedkilling efficacy grade [20]: 4 (weed kill ratio 70% or more, less than 90%)
b (directly sown rice) effect on crop grade [21]: 0 (weed kill ratio 5% or less (practically no effect))
c (corn) effect on crop grade [22]: 0 (weed kill ratio 5% or less (practically no effect))
d (soybean) effect on crop grade [23]: 0 (weed kill ratio 5% or less (practically no effect))
e (wheat) effect on crop grade [24]: 0 (weed kill ratio 5% or less (practically no effect))
f (beet) effect on crop grade [25]: 0 (weed kill ratio 5% or less (practically no effect))
g (rapeseed) effect on crop grade [26]: 0 (weed kill ratio 5% or less (practically no effect))
D (crabgrass) weedkilling efficacy grade [27]: 3 (weed kill ratio 40% or more, less than 70%)
E (green foxtail) weedkilling efficacy grade [28]: 3 (weed kill ratio 40% or more, less than 70%)
F (barnyard grass) weedkilling efficacy grade [29]: 3 (weed kill ratio 40% or more, less than 70%)
G (wild oat) weedkilling efficacy grade [30]: 1 (weed kill ratio 5% or more, less than 20%)
H (black-grass) weedkilling efficacy grade [31]: 3 (weed kill ratio 40% or more, less than 70%)
I (Italian ryegrass) weedkilling efficacy grade [32]: 2 (weed kill ratio 20% or more, less than 40%)
J (common wind-grass) weedkilling efficacy grade [33]: 4 (weed kill ratio 70% or more, less than 90%)
K (Indian mallow) weedkilling efficacy grade [34]: 4 (weed kill ratio 70% or more, less than 90%)
L (redroot pigweed) weedkilling efficacy grade [35]: 4 (weed kill ratio 70% or more, less than 90%)
M (fig-leafed goosefoot) weedkilling efficacy grade [36]: 3 (weed kill ratio 40% or more, less than 70%)
N (chickweed) weedkilling efficacy grade [37]: 2 (weed kill ratio 20% or more, less than 40%)
O (catchweed) weedkilling efficacy grade [38]: 1 (weed kill ratio 5% or more, less than 20%)
P (birds-eye speedwell) weedkilling efficacy grade [39]: 4 (weed kill ratio 70% or more, less than 90%)
b (directly sown rice) effect on crop grade [40]: 0 (weed kill ratio 5% or less (practically no effect))
c (corn) effect on crop grade [41]: 0 (weed kill ratio 5% or less (practically no effect))
d (soybean) effect on crop grade [42]: 0 (weed kill ratio 5% or less (practically no effect))
e (wheat) effect on crop grade [43]: 0 (weed kill ratio 5% or less (practically no effect))
f (beet) effect on crop grade [44]: 0 (weed kill ratio 5% or less (practically no effect))
g (rapeseed) effect on crop grade [45]: 4 (weed kill ratio 70% or more, less than 90%)
